Source: patent US8273775B2, “Non-steroidal brassinosteroid mimetic” (priority 2006, dated 2012)

Test system: gene expression in Col-0 seedling shoots
Experiment: Microarray analysis (ATH1 Affymetrix) after BL or abrasin treatment
Format: in vivo, Arabidopsis
Procedure: FIG. 14: Clustering of gene expression profiles by QT-clust analysis. Clusters illustrating the major patterns of the data sets. Points: BIK-30: 30 μM abrasin 30 min; BL-30: 1 μM brassinolide 30 min; DMSO-30: control DMSO 30 min; BIK-120: 30 μM abrasin 120 min; BL-120: 1 μM brassinolide 120 min; DMSO-120: control DMSO 120 min.
Col-0 seeds were germinated vertically on ½ MS medium for 7 days under 16 h light/8 h dark cycles. The seedlings were overlaid with liquid ½ MS medium containing 1 μM brassinolide (BL, Fuji Chemical Industries, Ltd., Toyama, Japan), 30 μM abrasin (BIK, ChemBridge Corporation) and DMSO and treated for 30 and 120 min. The shoot parts were collected for RNA isolation. All sampling points were performed in three independent experiments. RNA was extracted using RNeasy kit (Qiagene). […] total RNA per array was used to hybridise the ATH1 Affymetrix Arabidopsis arrays according to standard procedure. The overrepresentation analyses were performed using BiNGO software (Maere et al., 2005).
We performed a microarray analysis using the Arabidopsis whole genome chip (Affymetix) to determine whether abrasin activated the expression of BR-inducible genes at transcriptional level. Wild-type Col-0 seedlings were exposed to 1 μM BL, 30 μM ABRASIN and DMSO (mock-treatment) for two time points (30 min and 120 min) and the shoot parts were collected for RNA isolation. The analysis of the variance of the normalized gene expression data took in account the variability parameters affecting the expression level: type of hormone treatment, duration of treatment and the interaction between these two.

## O=C(O)CCC(=O)Nc1ccc(Br)cn1 [abrasin, 4-[(5-bromo-2-pyridinyl)amino]-4-oxobutanoic acid]
1 μM BL, 30 μM ABRASIN
  expression of BR biosynthesis genes (CPD, DWF4, BR6OX2), Cluster 1: down-regulated
  expression of WRKY transcription factors, DOF-type proteins, lectin receptor-like kinases, U-box proteins, HAESA: induces the expression
  expression of genes involved in the auxin pathway (IAA29, IAA2): significantly down-regulated
1 μM BL, 30 μM ABRASIN, 30 and 120 min
  induction of early auxin-inducible SAUR family genes, Cluster 3: had an effect only after 2 hours
30 min
  Fold-change AT1G04330 expressed protein: 1.17
  Fold-change AT1G05470 endonuclease/exonuclease/phosphatase family protein: 1.42
  Fold-change AT1G06520 Encodes a membrane associated mitochondrial localized protein: 1.26
  Fold-change AT1G06570 4-hydroxyphenylpyruvate dioxygenase (HPD): 0.91
  Fold-change AT1G10550 xyloglucan:xyloglucosyl transferase: 1.26
  Fold-change AT1G12710 F-box family protein: 0.88
  Fold-change AT1G12750 rhomboid family protein: 1.46
  Fold-change AT1G14130 2-oxoglutarate-dependent dioxygenase: 1.10
  Fold-change AT1G14700 purple acid phosphatase: 0.53
  Fold-change AT1G16640 transcriptional factor B3 family protein: 1.14
  Fold-change AT1G17230 leucine-rich repeat family protein: 1.09
  Fold-change AT1G18020; AT1G17990 [AT1G18020, 12-oxophytodienoate reductase,: 1.31
  Fold-change AT1G19320 pathogenesis-related thaumatin family protein: 0.52
  Fold-change AT1G20350 mitochondrial import inner membrane translocase subunit: 1.00
  Fold-change AT1G21050 expressed protein: 0.32
  Fold-change AT1G21760 F-box family protein: 0.76
  Fold-change AT1G22360 UDP-glucoronosyl/UDP-glucosyl transferase family protein: 0.82
  Fold-change AT1G23080 auxin efflux carrier protein (PIN7): 0.81
  Fold-change AT1G26800 zinc finger (C3HC4-type RING finger) family protein,: 1.07
  Fold-change AT1G27730 zinc finger (C2H2 type) family protein: 0.56
  Fold-change AT1G28130 encodes an IAA-amido synthase: 0.64
  Fold-change AT1G28190 expressed protein: 2.79
  Fold-change AT1G28480 glutaredoxin family protein: 1.02
  Fold-change AT1G31040 zinc-binding protein-related: 1.35
  Fold-change AT1G31310 hydroxyproline-rich glycoprotein family protein: 1.17
  Fold-change AT1G31770 ABC transporter family protein: 0.91
  Fold-change AT1G32190 expressed protein: 0.73
  Fold-change AT1G32690 expressed protein: 0.38
  Fold-change AT1G36940 expressed protein: 0.45
  Fold-change AT1G49780 U-box domain-containing protein: 0.71
  Fold-change AT1G53870; AT1G53890 [AT1G53870, expressed protein: 0.43
  Fold-change AT1G54050 17.4 kDa class III heat shock protein (HSP17.4-CIII): 1.16
  Fold-change AT1G54200 expressed protein: 1.26
  Fold-change AT1G55920 serine O-acetyltransferase: 2.19
  Fold-change AT1G57560 myb family transcription factor (MYB50): 1.19
  Fold-change AT1G59590 expressed protein: 1.99
  Fold-change AT1G59660 nucleoporin family proteinmily: 1.45
  Fold-change AT1G62300 WRKY family transcription factor: 1.58
  Fold-change AT1G63050 membrane bound O-acyl transferase (MBOAT) family protein: 0.75
  Fold-change AT1G66160 U-box domain-containing protein,: 2.03
  Fold-change AT1G66890 expressed protein: 0.65
  Fold-change AT1G68330 expressed protein: 1.76
  Fold-change AT1G68810 basic helix-loop-helix (bHLH) family protein: 0.80
  Fold-change AT1G69160 expressed protein: 0.67
  Fold-change AT1G70990 proline-rich family protein: 1.70
  Fold-change AT1G71030 Encodes a putative myb family transcription factor: 0.92
  Fold-change AT1G72060 expressed protein: 2.19
  Fold-change AT1G72180 leucine-rich repeat transmembrane protein kinase: 0.54
  Fold-change AT1G72800 nuM1-related, contains: 1.15
  Fold-change AT1G75270 dehydroascorbate reductase: 1.16
  Fold-change AT1G75500 nodulin MtN21 family protein: 0.67
  Fold-change AT1G76240 expressed protein,: 0.40
  Fold-change AT1G76410 zinc finger (C3HC4-type RING finger): 0.54
  Fold-change AT1G79110 expressed protein: 0.66
  Fold-change AT1G79630 protein phosphatase 2C family protein: 0.62
  Fold-change AT1G80440 kelch repeat-containing F-box family protein: 1.36
  Fold-change AT2G01300 expressed protein: 0.73
  Fold-change AT2G01990 expressed protein,: 1.89
  Fold-change AT2G04240 zinc finger (C3HC4-type RING finger) family protein: 0.77
  Fold-change AT2G05540 glycine-rich protein: 0.71
  Fold-change AT2G12290; AT4G19700 [AT2G12290, expressed protein]; [AT4G19700, expressed protein]: 0.38
  Fold-change AT2G18010 auxin-responsive family protein (SAUR10): 1.35
  Fold-change AT2G19800 expressed protein: 2.29
  Fold-change AT2G22860 phytosulfokines 2 (PSK2): 0.68
  Fold-change AT2G23180 cytochrome P450, putative: 0.67
  Fold-change AT2G23320 WRKY family transcription factor: 1.41
  Fold-change AT2G26530 expressed protein: 1.24
  Fold-change AT2G26710 cytochrome p450 family (BAS1): 0.72
  Fold-change AT2G28510 Dof-type zinc finger domain-containing protein: 1.28
  Fold-change AT2G29340 short-chain dehydrogenase/reductase (SDR) family protein: 1.55
  Fold-change AT2G29990 pyridine nucleotide-disulphide oxidoreductase family protein: 1.43
  Fold-change AT2G30070 potassium transporter (KUP1): 0.61
  Fold-change AT2G31230 encodes a member of the ERF (ethylene response factor): 2.13
  Fold-change AT2G34650 protein kinase PINOID (PID): 1.04
  Fold-change AT2G36220 expressed protein: 1.10
  Fold-change AT2G37590 Dof-type zinc finger domain-containing protein: 1.52
  Fold-change AT2G38470 WRKY family transcription factor: 2.02
  Fold-change AT2G39710 aspartyl protease family protein: 2.42
  Fold-change AT2G40340; AT2G40350 [AT2G40340, encodes a member of the DREB subfamily A-2 of ERF/AP2: 1.40
  Fold-change AT2G41250 haloacid dehalogenase-like hydrolase family protein: 0.82
  Fold-change AT2G41640 expressed protein: 1.96
  Fold-change AT2G42280 basic helix-loop-helix (bHLH) family protein: 0.67
  Fold-change AT2G43060 expressed protein, similar to cDNA bHLH transcription factor: 0.31
  Fold-change AT2G43280 far-red impaired responsive family protein: 0.78
  Fold-change AT2G43290 calmodulin-like protein (MSS3): 0.81
  Fold-change AT2G44130 kelch repeat-containing F-box family protein: 1.13
  Fold-change AT2G44500 expressed protein: 1.26
  Fold-change AT2G45210 auxin-responsive protein-related: 0.34
  Fold-change AT2G45680 TCP family transcription factor: 0.50
  Fold-change AT2G46225 Encodes a subunit of the WAVE complex: 1.15
  Fold-change AT2G47440 DNAJ heat shock N-terminal domain-containing protein: 1.07
  Fold-change AT3G04210 disease resistance protein (TIR-NBS class), putative,: 2.18
  Fold-change AT3G09920 phosphatidylinositol-4-phosphate 5-kinase family protein: 1.56
  Fold-change AT3G12920 expressed protein: 0.45
  Fold-change AT3G13040 myb family transcription factor: 0.93
  Fold-change AT3G13510 expressed protein: 0.85
  Fold-change AT3G13980 expressed protein: 0.25
  Fold-change AT3G14370 protein kinase family protein: 1.10
  Fold-change AT3G14560 expressed protein: 0.59
  Fold-change AT3G16570 rapid alkalinization factor (RALF) family protein: 0.54
  Fold-change AT3G17860 expressed protein: 0.78
  Fold-change AT3G18830 polyol/cyclitol/monosaccharide-H+-symporte: 1.64
  Fold-change AT3G19380 U-box domain-containing protein: 0.67
  Fold-change AT3G23030 auxin-responsive protein/indoleacetic acid-induced protein 2 (IAA2): 0.55
  Fold-change AT3G23550 MATE efflux family protein: 0.67
  Fold-change AT3G25710 basic helix-loop-helix (bHLH) family protein: 0.48
  Fold-change AT3G25900 homocysteine S-methyltransferase 1 (HMT-1): 1.32
  Fold-change AT3G26910 hydroxyproline-rich glycoprotein family protein: 2.49
  Fold-change AT3G30180 cytochrome p450 enzyme: 0.09
  Fold-change AT3G46880 expressed protein,: 1.50
  Fold-change AT3G47800 aldose 1-epimerase family protein: 0.91
  Fold-change AT3G48970 copper-binding family protein: 0.40
  Fold-change AT3G49810 U-box domain-containing protein: 1.29
  Fold-change AT3G50650 scarecrow-like transcription factor 7 (SCL7): 1.51
  Fold-change AT3G50660 steroid 22-alpha-hydroxylase (CYP90B1) (DWF4): 0.47
  Fold-change AT3G50750 brassinosteroid signalling positive regulator-related (BEH1): 0.63
  Fold-change AT3G52490 heat shock protein-related: 1.17
  Fold-change AT3G53810 lectin protein kinase: 2.28
  Fold-change AT3G54950 patatin-related,: 0.58
  Fold-change AT3G55120 chalcone-flavanone isomerase: 0.94
  Fold-change AT3G55150 exocyst subunit EXO70 family protein: 3.44
  Fold-change AT3G55840 expressed protein: 1.05
  Fold-change AT3G61460 zinc finger (C3HC4-type RING finger) family protein (BRH1): 0.43
  Fold-change AT3G63300 expressed protein: 1.26
  Fold-change AT4G01680 myb family transcription factor (MYB55): 0.21
  Fold-change AT4G02410 lectin protein kinase family protein: 2.60
  Fold-change AT4G08040 1-aminocyclopropane-1-carboxylate synthase, putative: 0.08
  Fold-change AT4G09460 myb family transcription factor: 1.50
  Fold-change AT4G12390 invertase/pectin methylesterase inhibitor family protein: 0.75
  Fold-change AT4G12410 auxin-responsive family protein: 0.66
  Fold-change AT4G14130 xyloglucan:xyloglucosyl transferase: 0.37
  Fold-change AT4G15975 zinc finger (C3HC4-type RING finger) family protein: 2.33
  Fold-change AT4G16146 expressed protein: 0.91
